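Protocol summary: plate cells (96-well), add compound at 5 concentrations, incubate 48 h, interpolate endpoints linearly. TGI: concentration producing complete growth inhibition.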
Assays:
Experiment in all cases: NCI-60 cell line screen, 48 h
UACC-62 melanoma = test system: UACC-62 melanoma
HT29 colon = test system: HT29 colon
OVCAR-4 ovarian = test system: OVCAR-4 ovarian
NCI-H522 lung = test system: NCI-H522 lung
M14 melanoma = test system: M14 melanoma
DU-145 prostate = test system: DU-145 prostate
MALME-3M melanoma = test system: MALME-3M melanoma
MOLT-4 leukemia = test system: MOLT-4 leukemia
ACHN renal = test system: ACHN renal
SK-MEL-2 melanoma = test system: SK-MEL-2 melanoma
SNB-75 CNS = test system: SNB-75 CNS
TK-10 renal = test system: TK-10 renal
T-47D breast = test system: T-47D breast
RXF 393 renal = test system: RXF 393 renal
EKVX NSCLC = test system: EKVX NSCLC
SW-620 colon = test system: SW-620 colon
SF-295 CNS = test system: SF-295 CNS
UACC-257 melanoma = test system: UACC-257 melanoma
K-562 leukemia = test system: K-562 leukemia
MCF7 breast = test system: MCF7 breast
CCRF-CEM leukemia = test system: CCRF-CEM leukemia
A549 NSCLC = test system: A549 NSCLC
HOP-92 NSCLC = test system: HOP-92 NSCLC
SK-MEL-5 melanoma = test system: SK-MEL-5 melanoma
MDA-N = test system: MDA-N
SF-539 CNS = test system: SF-539 CNS
OVCAR-5 ovarian = test system: OVCAR-5 ovarian
SK-OV-3 ovarian = test system: SK-OV-3 ovarian
U251 CNS = test system: U251 CNS
NCI/ADR-RES ovarian = test system: NCI/ADR-RES ovarian
KM12 colon = test system: KM12 colon
LOX IMVI melanoma = test system: LOX IMVI melanoma
NCI-H460 lung = test system: NCI-H460 lung
UO-31 renal = test system: UO-31 renal
SK-MEL-28 melanoma = test system: SK-MEL-28 melanoma
RPMI-8226 leukemia = test system: RPMI-8226 leukemia
SNB-19 CNS = test system: SNB-19 CNS
IGROV1 ovarian = test system: IGROV1 ovarian
MDA-MB-231 breast = test system: MDA-MB-231 breast
OVCAR-8 ovarian = test system: OVCAR-8 ovarian
NCI-H23 lung = test system: NCI-H23 lung
SR leukemia = test system: SR leukemia
NCI-H226 lung = test system: NCI-H226 lung
BT-549 breast = test system: BT-549 breast
COLO 205 colon = test system: COLO 205 colon
SN12C renal = test system: SN12C renal
HS 578T breast = test system: HS 578T breast
HOP-62 NSCLC = test system: HOP-62 NSCLC
HCC-2998 colon = test system: HCC-2998 colon
HL-60(TB) leukemia = test system: HL-60(TB) leukemia
A498 renal = test system: A498 renal
786-0 renal = test system: 786-0 renal
OVCAR-3 ovarian = test system: OVCAR-3 ovarian
CAKI-1 renal = test system: CAKI-1 renal
PC-3 prostate = test system: PC-3 prostate
SF-268 CNS = test system: SF-268 CNS
HCT-116 colon = test system: HCT-116 colon
HCT-15 colon = test system: HCT-15 colon

O=C(c1ccccc1)c1ccc2nc3n(c2c1)C(c1c(Cl)cccc1Cl)SC3 (stereo not drawn) showed a TGI (UACC-62 melanoma) of over 36.5 µM, a TGI (HT29 colon) of 31 µM and a TGI (OVCAR-4 ovarian) of over 80.3 µM. The TGI (NCI-H522 lung) was 5.1 µM, the TGI (M14 melanoma) was 16.9 µM and the TGI (DU-145 prostate) was over 94.5 µM. For the same compound, the TGI (MALME-3M melanoma) was 31.3 µM, the TGI (MOLT-4 leukemia) was 19.7 µM and the TGI (ACHN renal) was over 38 µM. The TGI (SK-MEL-2 melanoma) was 78.5 µM, the TGI (SNB-75 CNS) was 18.9 µM and the TGI (TK-10 renal) was over 100 µM. It also gave a TGI (T-47D breast) of 24.5 µM, a TGI (RXF 393 renal) of over 100 µM and a TGI (EKVX NSCLC) of 78.6 µM. The TGI (SW-620 colon) was over 100 µM, the TGI (SF-295 CNS) was over 26.6 µM and the TGI (UACC-257 melanoma) was over 100 µM. It also gave a TGI (K-562 leukemia) of over 100 µM, a TGI (MCF7 breast) of over 100 µM and a TGI (CCRF-CEM leukemia) of over 100 µM. The TGI (A549 NSCLC) was 54.7 µM, the TGI (HOP-92 NSCLC) was over 100 µM and the TGI (SK-MEL-5 melanoma) was 14.6 µM. The TGI (MDA-N) was 3.84 µM, the TGI (SF-539 CNS) was over 59.4 µM and the TGI (OVCAR-5 ovarian) was over 100 µM. It also gave a TGI (SK-OV-3 ovarian) of over 30.7 µM, a TGI (U251 CNS) of over 100 µM and a TGI (NCI/ADR-RES ovarian) of 35.8 µM. For the same compound, the TGI (KM12 colon) was 19.5 µM, the TGI (LOX IMVI melanoma) was 31.6 µM and the TGI (NCI-H460 lung) was over 51.9 µM. For the same compound, the TGI (UO-31 renal) was over 67.6 µM, the TGI (SK-MEL-28 melanoma) was over 100 µM and the TGI (RPMI-8226 leukemia) was over 74.7 µM. The TGI (SNB-19 CNS) was over 64.1 µM, the TGI (IGROV1 ovarian) was over 100 µM and the TGI (MDA-MB-231 breast) was over 100 µM. The TGI (OVCAR-8 ovarian) was over 55.5 µM, the TGI (NCI-H23 lung) was 83.6 µM and the TGI (SR leukemia) was 8.42 µM. For the same compound, the TGI (NCI-H226 lung) was over 100 µM, the TGI (BT-549 breast) was over 100 µM and the TGI (COLO 205 colon) was over 90.2 µM. For the same compound, the TGI (SN12C renal) was over 68.7 µM, the TGI (HS 578T breast) was over 65 µM and the TGI (HOP-62 NSCLC) was over 44.4 µM. It also gave a TGI (HCC-2998 colon) of over 50.4 µM, a TGI (HL-60(TB) leukemia) of over 53.5 µM and a TGI (A498 renal) of 50.1 µM. It also gave a TGI (786-0 renal) of over 100 µM, a TGI (OVCAR-3 ovarian) of over 100 µM and a TGI (CAKI-1 renal) of over 51.7 µM. The TGI (PC-3 prostate) was over 100 µM, the TGI (SF-268 CNS) was over 100 µM and the TGI (HCT-116 colon) was 12.8 µM. For the same compound, the TGI (HCT-15 colon) was over 100 µM.

— PubChem BioAssay (NCI)
